Values quoted from earlier work, collected in patent publication US4803080A (BYK Gulden Lomberg Chemische Fabrik, priority 1984, dated 1989).

SMILES: Cn1c(=O)c2[nH]cnc2n(C)c1=O [Theophylline, 1,3-dimethylxanthine]
- Serum theophylline levels regarded as toxic range (Nolte and Neumann): more than 20 μg/ml
- Absorption from the gastrointestinal tract during the night (in vivo): slowed down during the night
- Therapeutic range, plasma levels (in vivo): 8-20 mg/1
